Results published in US20120021434A1, “METHOD FOR TREATING B CELL REGULATED AUTOIMMUNE DISORDERS” (Synta Pharmaceuticals Corp., priority 2005, published 2012).

What was measured:
Assay type in all cases: cell-based
c-Rel = target: T1, c-Rel (Homo sapiens, UniProt Q04864); experiment: Western blot of THP-1 nuclear extracts: c-Rel
T1 construct: a western blot assay of THP1 nuclear c-Rel, p50 and p65 proteins was carried out; endogenous in cells; host or cells: THP-1; Jurkat
T1 sequence (Q04864 1-619): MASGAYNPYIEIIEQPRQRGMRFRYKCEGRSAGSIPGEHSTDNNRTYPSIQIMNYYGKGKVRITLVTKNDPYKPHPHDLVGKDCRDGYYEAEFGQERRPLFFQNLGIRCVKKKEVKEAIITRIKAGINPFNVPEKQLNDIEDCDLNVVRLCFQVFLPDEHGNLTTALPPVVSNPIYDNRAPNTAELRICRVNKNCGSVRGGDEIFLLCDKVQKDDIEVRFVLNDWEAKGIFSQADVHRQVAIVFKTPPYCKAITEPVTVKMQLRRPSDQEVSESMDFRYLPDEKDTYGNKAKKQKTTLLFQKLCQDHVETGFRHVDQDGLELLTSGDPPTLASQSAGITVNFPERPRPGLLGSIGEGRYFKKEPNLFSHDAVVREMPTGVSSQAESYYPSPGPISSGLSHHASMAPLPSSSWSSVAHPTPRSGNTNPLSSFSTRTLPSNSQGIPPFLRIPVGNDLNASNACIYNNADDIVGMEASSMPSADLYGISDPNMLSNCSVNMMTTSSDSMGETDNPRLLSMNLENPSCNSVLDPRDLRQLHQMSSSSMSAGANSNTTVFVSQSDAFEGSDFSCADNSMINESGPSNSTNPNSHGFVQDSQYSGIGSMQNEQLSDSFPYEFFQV
Experimental: The THP-1 cell, Jurkat cell and RAW264.7 cell line were obtained from American Type Culture Collection (Manassas, Va.). The THP-1 Jurkat cells were cultured in RPMI 1640 (ATCC, Manassas, Va.), supplemented with 10% FCS (ATCC, Manassas, Va.), and 1% penicillin/Streptomycin (Gibco-BRL, New York, N.Y.). The RAW264.7 cells were cultured in DMEM (ATCC, Manassas, Va.) supplemented with 10% FCS (ATCC, Manassas, Va.), and 1% penicillin/Streptomycin (Gibco-BRL, New York, N.Y.). The cells were stimulated with human or murine recombinant IFNγ (100 ng/ml) for 10 h followed by LPS (1 μg/ml) or SAC (0.025%) CpG ([…]) in the presence or absence of Compound 50 at different concentrations for an additional incubation.
THP-1 cells were suspended in 20 volumes of buffer A containing 10 mM KCl, 10 mM HEPES (pH 7.9), 1 mM MgCl2, 1 mM dithiothreitol (DTT), 0.1% Nonidet p40 (NP-40), and 0.5 mM phenylmethylsulfonyl fluoride (PMSF) and homogenized and centrifuged at 10,000 rpm at 4C afor 5 min. Nuclear pellets were then suspended in buffer C containing 400 mM NaCl, 20 mM HEPES 9, pH 7.9), 15 mM MgCl2, 0.2 mM EDTA, 1 mM DTT, 25% glycerol, 1 mM PMSF, and 10 ug of leupeptin, 20 ug of pepstatin, and 10 ug/ml antipain, incubated for 30 min at 4C, and centrifuged at 14,000 rpm for 20 min. The supernatants were dialyzed against buffer D containing 100 mM NaCl, 20 mM HEPES (pH 7.9), 20% glycerol, 1 mM PMSF, and 1 mM DTT.
The 10% SDS Polyacrylamide gels (Inveitrogen) were transferred to Pure Nitrocellulose membrane (BioRed, Hercules, Calif.). The membranes were blocked with 5% milk in TBST buffer and incubated with anti-c-Rel, anti-p65, anti-p50, anti-ICSBP or anti-PU-1 antibody (all the antibodies were purchased from Santa Cruz) at a dilution of 1:500 for 1 h at room temperature or overnight at 4C. […]
Of the transcription factors that have been analyzed, two factors, ICSBP and c-Rel, seem to be affected by Compound 4/Compound 50 treatment. […]

IκBα = experiment: Inducible degradation of IκBα (Western blot and FACS); conditions: IFN-γ/LPS or IFN-γ/SAC, 500 nM, 30 min and 2 hrs
Experimental: IκB degradation is one of the steps in the signaling pathway of NF-κB dependent genes. The activity of Compound 50 in inducible degradation of IκBα and IκBβ was investigated in THP-1 cells using Western blot and FACS analysis. […] Similar results were observed from the Compound 50 pre-treatment samples in which Compound 50 was added 30 min before stimulation.

p52 = p52 nuclear translocation in IFNγ+LPS-stimulated THP1 cells (immunoblot); conditions: 100 nM, 6 h
Experimental: RelB and p52 are two members of Rel family, which are preferentially complexed with each other. To determine the effect of Compound 50 on p52 and Rel-B nuclear translocation, THP1 cells were stimulated with IFNγ+LPS in either the presence or absence of 100 nM Compound 50 and the distribution of p52 and Rel-B was determined by immunoblotting of nuclear at 6 h post-treatment.

IL-2 = experiment: Induction of IL-2 in PMA+ionomycin stimulated Jurkat T cells; conditions: previously shown

- level of nuclear c-Rel (c-Rel; THP-1 nuclear extracts, IFN-γ plus LPS or IFN-γ plus SAC, post-treatment level equal to or below non-stimulated level): significantly reduced
- transcription factor c-Rel affected by treatment (c-Rel; of the transcription factors analyzed): affected
SMILES: Cc1cccc(/C=N/Nc2cc(N3CCOCC3)nc(OCCc3ccccn3)n2)c1 [Compound 50, N-(3-Methyl-benzylidene)-N′-[6-morpholin-4-yl-2-(2-pyridin-2-yl-ethoxy)-pyrimidin-4-yl]-hydrazine]
- amount of IκBα in the cytoplasm, with vs without compound (IκBα): no significant difference
- nuclear p52 (p52): No significant difference
- induction of the c-Rel dependent cytokine IL-2 (IL-2): impairs
